# In ChEMBL document CHEMBL1139178, “Probing acid replacements of thiophene PTP1B inhibitors” (Bioorg Med Chem Lett, 2007):
# System: not listed separately
# Test: Permeability of compound by PAMPA
# Assay type: ADME
# Settings: read-out: permeability
row,SMILES,Papp
1,O=C1CN(c2c(Cl)sc(-c3ccccc3)c2Cl)S(=O)(=O)N1,3.54 ×10⁻⁶ cm/s
2,Cc1c(N2CC(=O)NS2(=O)=O)csc1-c1cccc(NC2CCN(S(=O)(=O)Cc3ccccc3)CC2)c1,0.19 ×10⁻⁶ cm/s
3,Cc1c(-c2cccc(OC3CCN(S(=O)(=O)Cc4ccccc4)CC3)c2)sc(-c2nn[nH]n2)c1OCC(=O)O,0.22 ×10⁻⁶ cm/s

# Molecular target: T1, Tyrosine-protein phosphatase non-receptor type 1 (Homo sapiens, UniProt P18031)
# T1 sequence (P18031 whole entry): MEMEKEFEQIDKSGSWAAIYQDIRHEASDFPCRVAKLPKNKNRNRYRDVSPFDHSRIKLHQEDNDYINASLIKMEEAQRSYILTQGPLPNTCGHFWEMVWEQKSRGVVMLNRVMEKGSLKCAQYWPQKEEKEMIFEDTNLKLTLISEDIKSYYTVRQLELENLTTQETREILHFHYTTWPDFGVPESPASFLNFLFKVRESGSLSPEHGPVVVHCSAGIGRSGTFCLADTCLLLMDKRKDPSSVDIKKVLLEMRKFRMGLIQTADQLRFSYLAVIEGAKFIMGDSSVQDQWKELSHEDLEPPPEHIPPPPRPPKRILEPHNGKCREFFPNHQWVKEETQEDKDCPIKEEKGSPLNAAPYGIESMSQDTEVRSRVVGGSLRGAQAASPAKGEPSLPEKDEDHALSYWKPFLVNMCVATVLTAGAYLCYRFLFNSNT
# Test: Inhibition of PTP1B assessed as pNPP hydrolysis
# Settings: not given
SMILES,IC50,Ki
C=CCOc1c(C(=O)O)sc(Br)c1Br,> 2500 µM,
Cc1c(-c2ccccc2)sc(-c2nnn[nH]2)c1OCC(=O)O,,170 µM
O=C(O)COc1c(C(=O)CO)sc(Br)c1Br,330 µM,210 µM
NNC(=O)c1sc(Br)c(Br)c1OCC(=O)O,> 2500 µM,
O=C(O)COc1c(-c2nnn[nH]2)sc(-c2cccc(NC3CCCCC3)c2)c1Br,,18 µM
CC(C)c1nc(-c2sc(Br)c(Br)c2OCC(=O)O)no1,> 2500 µM,
O=C(O)c1sc(Br)c(Br)c1OCC(O)CO (stereo not drawn),> 2500 µM,
N#Cc1sc(Br)c(Br)c1OCC(=O)O,> 2500 µM,
O=C(O)COc1c(-c2nnn[nH]2)sc(Br)c1Br,430 µM,270 µM
O=C(O)c1sc(Br)c(Br)c1OCC(F)(F)F,> 2500 µM,
Cc1c(N2CC(=O)NS2(=O)=O)csc1-c1cccc(NC2CCN(S(=O)(=O)Cc3ccccc3)CC2)c1,,4.3 µM
O=C(O)COc1c(C(=O)O)sc(Br)c1Br,29 µM,
CC1(C)CC(Nc2cccc(-c3sc(-c4nn[nH]n4)c(OCC(=O)O)c3Br)c2)CC(C)(C)C1,,1.6 µM
O=C(COc1c(C(=O)O)sc(Br)c1Br)NO,> 2500 µM,
CC(=O)Nc1sc(Br)c(Br)c1OCC(=O)O,> 2500 µM,
O=C(O)COc1cc(-c2ccccc2)sc1-c1nn[nH]n1,,120 µM
O=C(O)c1sc(Br)c(Br)c1OCCO,> 2500 µM,

SMILES,IC50,Ki
O=C(O)COc1c(C(=O)N2CCOCC2)sc(Br)c1Br,210 µM,
Cc1c(N2CC(=O)NS2(=O)=O)csc1-c1cccc(NC2CCCCC2)c1,,12 µM
N#CCOc1c(C(=O)O)sc(Br)c1Br,> 2500 µM,
CC(=O)N(c1cccc(-c2sc(-c3nn[nH]n3)c(OCC(=O)O)c2Br)c1)C1CC(C)(C)CC(C)(C)C1,,4.6 µM
Cc1nc(-c2sc(Br)c(Br)c2OCC(=O)O)no1,> 2500 µM,
Cc1c(-c2cccc(OC3CCN(S(=O)(=O)Cc4ccccc4)CC3)c2)sc(-c2nn[nH]n2)c1OCC(=O)O,,1.3 µM
O=C(O)COc1c(C(=O)Nc2ccn[nH]2)sc(Br)c1Br,> 2500 µM,
O=C(O)c1sc(Br)c(Br)c1OCc1nn[nH]n1,> 2500 µM,
NC(=O)c1sc(Br)c(Br)c1OCC(=O)O,> 2500 µM,
O=C(O)COc1c(-c2nnn[nH]2)sc(-c2ccccc2)c1Br,,20 µM
O=C(O)COc1csc(Br)c1Br,> 2500 µM,
O=C(O)COc1c(CO)sc(Br)c1Br,> 2500 µM,
C=CCc1sc(Br)c(Br)c1OCC(=O)O,165 µM,
CCc1nc(-c2sc(Br)c(Br)c2OCC(=O)O)no1,> 2500 µM,
O=C1CN(c2csc(-c3ccccc3)c2Br)S(=O)(=O)N1,29 µM,
O=C(O)COc1c(C(=O)Nc2nccs2)sc(Br)c1Br,> 2500 µM,
